Like-named read-outs stand apart in the source and are kept apart here.
Experiments:
CYP2C9 = biological target: T1, CYP2C9 (Homo sapiens, UniProt P11712); assay: CYP inhibition / time-dependent inhibition, CYP2C9_Diclofenac; assay type: in vitro ADME; settings: role: inhibitor
T1 construct: pre-incubation of the human liver microsomes with the test compound; tissue Corning; host or cells: human liver microsomes
Experimental: (§1) The time-dependent inactivation potency of the test compound to CYP enzymatic activities was assessed by the pre-incubation of the human liver microsomes with the test compound in the presence and absence of NADPH, followed by the incubation with the discrete marker substrates, as follows.
(§2) Pre-incubation with human liver microsomes (HLMs): The TDI inactivation potency on CYP enzymatic activities was evaluated through pre-incubation with HLMs (Corning). A liver microsome mixture at a concentration of 0.1 mg/mL, and the test compound at 8 different concentrations (0, 0.05, 0.165, 0.5, 1.65, 5.0, 16.5, or 50.0 μM) was warmed at 37° C. for 10 minutes. Concurrently, a set of known time-dependent inactivators was also prepared in duplicate for comparison. Following this, NADPH (1.0 mM) was added to one group (Group 1), and an equal volume of potassium phosphate buffer to the second group (Group 2), marking the beginning of a 30-minute pre-incubation at 37° C.
(§3) Incubation: After pre-incubation, the marker substrate, or marker substrate plus NADPH was added to the mixture, thereby initiating the incubation. The duration of the incubation was dependent on the type of CYP isoform being evaluated. For example, with the CYP3A isoform, the mixture was incubated over 3 minutes utilizing midazolam as the marker substrate (2.0 μM), verapamil as the standard inactivator (3.5 μM).
(§4) Termination of Reaction: Following the incubation, ice-cooled acetonitrile containing the internal standard (IS) was added to halt the reactions. Metabolites generated from the marker substrates were then measured via LC-MS/MS, assessed based on peak area ratios of the analyte to IS.

MIA-OA rats = assay: Monosodium iodoacetate-induced osteoarthritis (MIA-OA) pain model; assay type: in vivo, rat
Experimental: All animal experiments were carried out according to the Guide for the Care and Use of Laboratory Animals (2011 edition) and approved by the Israel National Institutional Animal Care and Use Committee (IACUC). Young adult male SD rats (Envigo RMS, Israel), were used for in vivo efficacy: Spared Nerve Injury (SNI), Distal Tibial Injury (DTI) and Post-operative Pain (POP), 200-220 grams, Chronic Post-Ischemia Pain (CPIP) 275-325 grams, Monosodium iodoacetate-induced osteoarthritis (MIA-OA) 180-220 grams; for in vivo safety: 200-250 grams at study initiation. […] The health status of the animals used in this study was examined upon their arrival. Only animals in good health were acclimatized to laboratory conditions and were used in the studies. All studies were performed following at least five days of animal acclimation. During acclimation and throughout the entire study duration, animals were housed within a limited-access rodent facility and kept in groups with a maximum of 2-3 rats per polypropylene cage. The cages were fitted with solid bottoms and filled with sterile wood shavings as bedding material. Animals were provided ad libitum with a commercial, sterile rodent diet and had free access to drinking water that was supplied to each cage via polyethylene bottles with stainless steel sipper tubes. A feed lot analysis of the diet batch used in the study was included in the archives with the study data. Water was monitored periodically. Plastic cylinders for playing and hiding and wooden balls or sticks were added to the cages for environmental enrichment.
Monosodium iodoacetate-induced osteoarthritis (MIA-OA): The animals were anaesthetized using an Isoflurane+O2 mixture. Then 50 μl of MIA at a concentration of 60 mg/mL was injected into the right knee joint using a 30 G needle. On study days 13 and 14 following MIA injection, the animals' dynamic weight bearing and response to von Frey filaments were measured.
Mechanical Allodynia (Von Frey): The rats were placed in an enclosure and positioned on a metal mesh surface but allowed to move freely. […]

CYP2C19 = biological target: T2, CYP2C19 (Homo sapiens, UniProt P33261); assay: CYP inhibition / time-dependent inhibition, CYP2C19_S-Mephenytoin; assay type: in vitro ADME; settings: role: inhibitor
T2 construct: pre-incubation of the human liver microsomes with the test compound; tissue Corning; host or cells: human liver microsomes
Experimental: as §1, §2, §3, §4

CYP2B6 = biological target: T3, CYP2B6 (Homo sapiens, UniProt P20813); assay: CYP inhibition / time-dependent inhibition, CYP2B6_Bupropion; assay type: in vitro ADME; settings: role: inhibitor
T3 construct: pre-incubation of the human liver microsomes with the test compound; tissue Corning; host or cells: human liver microsomes
T3 sequence (P20813 1-491): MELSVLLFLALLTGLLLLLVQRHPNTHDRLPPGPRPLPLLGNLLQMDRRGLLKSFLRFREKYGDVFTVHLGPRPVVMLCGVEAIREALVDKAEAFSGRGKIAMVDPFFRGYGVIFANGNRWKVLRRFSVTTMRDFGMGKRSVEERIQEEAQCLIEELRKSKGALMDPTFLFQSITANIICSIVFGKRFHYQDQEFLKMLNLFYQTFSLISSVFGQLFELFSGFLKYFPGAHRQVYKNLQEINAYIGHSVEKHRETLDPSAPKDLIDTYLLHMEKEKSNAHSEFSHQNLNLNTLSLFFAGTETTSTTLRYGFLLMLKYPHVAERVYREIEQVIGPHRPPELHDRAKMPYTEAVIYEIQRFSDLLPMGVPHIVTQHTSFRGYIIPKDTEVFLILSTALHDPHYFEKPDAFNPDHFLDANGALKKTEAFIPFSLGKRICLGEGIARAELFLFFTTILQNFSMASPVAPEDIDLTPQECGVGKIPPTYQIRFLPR
Experimental: Pre-incubation with human liver microsomes (HLMs): The TDI inactivation potency on CYP enzymatic activities was evaluated through pre-incubation with HLMs (Corning). […] Concurrently, a set of known time-dependent inactivators was also prepared in duplicate for comparison. Following this, NADPH (1.0 mM) was added to one group (Group 1), and an equal volume of potassium phosphate buffer to the second group (Group 2), marking the beginning of a 30-minute pre-incubation at 37° C.

[1] = Ligand-lipophilicity efficiency (LLE); assay type: physicochemical
Text: Ligand-lipophilicity efficiency (LLE) is a parameter used in drug design and drug discovery to evaluate the quality of research compounds, linking potency and lipophilicity.
To follow LLE values, the following equation was used: […]
Suitable LLE value are typically higher than 3 or higher than 5.

T1 sequence (P11712 whole entry): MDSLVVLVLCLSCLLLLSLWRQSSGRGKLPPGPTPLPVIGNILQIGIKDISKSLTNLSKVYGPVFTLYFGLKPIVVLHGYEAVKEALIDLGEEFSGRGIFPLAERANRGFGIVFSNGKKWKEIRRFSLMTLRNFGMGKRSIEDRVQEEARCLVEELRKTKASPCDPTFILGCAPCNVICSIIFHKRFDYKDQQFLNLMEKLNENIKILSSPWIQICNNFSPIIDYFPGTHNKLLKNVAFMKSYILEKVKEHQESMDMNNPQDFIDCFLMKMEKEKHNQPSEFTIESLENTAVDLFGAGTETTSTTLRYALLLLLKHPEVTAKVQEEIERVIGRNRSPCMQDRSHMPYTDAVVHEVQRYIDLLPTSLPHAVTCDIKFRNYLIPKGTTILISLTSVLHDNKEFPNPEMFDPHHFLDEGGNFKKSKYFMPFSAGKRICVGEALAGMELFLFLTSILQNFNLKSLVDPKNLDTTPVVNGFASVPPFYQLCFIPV
T2 sequence (P33261 whole entry): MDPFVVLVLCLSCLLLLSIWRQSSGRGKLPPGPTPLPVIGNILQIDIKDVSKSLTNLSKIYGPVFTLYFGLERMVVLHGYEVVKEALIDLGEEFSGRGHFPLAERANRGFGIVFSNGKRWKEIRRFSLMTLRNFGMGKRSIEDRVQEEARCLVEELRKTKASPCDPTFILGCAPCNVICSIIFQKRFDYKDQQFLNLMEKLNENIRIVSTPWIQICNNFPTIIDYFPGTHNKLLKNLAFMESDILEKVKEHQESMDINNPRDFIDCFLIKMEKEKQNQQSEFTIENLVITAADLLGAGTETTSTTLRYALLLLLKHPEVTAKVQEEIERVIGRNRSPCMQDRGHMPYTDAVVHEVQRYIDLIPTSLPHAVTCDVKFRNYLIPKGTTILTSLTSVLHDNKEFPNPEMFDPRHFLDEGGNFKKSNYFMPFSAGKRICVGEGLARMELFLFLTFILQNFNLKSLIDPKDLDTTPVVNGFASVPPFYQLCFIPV

O=C(Cc1nccc(-n2cc(Cl)c3cc(Cl)cc(Cl)c32)n1)NC1COCC1O (stereo not shown) [Compound 760]
IC50 (CYP2C9; Table 9, read-out: CYP inhibition IC50 CYP2C9): 44.3 µM
Pain relief in osteoarthritic pain model (MIA-OA rats; 3-30 mg/kg PO, vs naproxen 30 mg/kg PO): superior in both effect and duration to high dose of naproxen
minimal effective dose (MIA-OA rats; Rattus norvegicus, po, read-out: Effective dose, osteoarthritic pain): 3 to 30 mg/kg
IC50 (CYP2C19; Table 9, read-out: CYP inhibition IC50 CYP2C19): > 50 µM
IC50 (CYP2B6; Table 9, read-out: CYP inhibition IC50 CYP2B6): 34.9 µM

O=C(Cc1cncc(-n2cc(Cl)c3cc(Cl)cc(Cl)c32)c1)N[C@@H]1COC[C@H]1O [Compound 661]
IC50 (CYP2C9; (+)NADPH pre-incubation, substrate diclofenac, read-out: IC50 (+)NADPH CYP2C9_Diclofenac): 13 µM
IC50 (CYP2C9; (−)NADPH pre-incubation, substrate diclofenac, read-out: IC50 (−)NADPH CYP2C9_Diclofenac): 14.8 µM
Reversal of PWT (MIA-OA rats; 100 mg/kg, 6 hour post-dose): 33%
IC50 (CYP2C19; (+)NADPH pre-incubation, substrate S-mephenytoin, read-out: IC50 (+)NADPH CYP2C19_S-Mephenytoin): 18.5 µM
IC50 (CYP2C19; (−)NADPH pre-incubation, substrate S-mephenytoin, read-out: IC50 (−)NADPH CYP2C19_S-Mephenytoin): 15.6 µM
IC50 (CYP2B6; (+)NADPH pre-incubation, substrate bupropion, read-out: IC50 (+)NADPH CYP2B6_Bupropion): 8.91 µM
IC50 (CYP2B6; (−)NADPH pre-incubation, substrate bupropion, read-out: IC50 (−)NADPH CYP2B6_Bupropion): 11 µM

CC(C)c1cc(Cl)cc(Cl)c1Nc1ccc(F)c(CC(=O)NCC(C)(C)O)c1 [NH91, reference compound]
LLE [1]: 1.6
LLE Kv 7.2/7.3 [1]: 0.8
LLE TRPV1 [1]: −0.35

Cc1cn(-c2ccc(F)c(CC(=O)NCC(C)(C)O)c2)c2c(Cl)cc(Cl)cc12 [Compound 421]
LLE [1]: 2.1

Source: US20260327211A1, “MODULATORS OF A POTASSIUM CHANNEL AND OF TRPV1 CHANNEL AND USES THEREOF” (Bsense Bio Therapeutics Ltd., priority 2023, published 2026)
